According to patent US20070065443A1, “Fructoseamine 3 kinase and the formation of collagen and elastin” (priority 2004, published 2007):
“And” between values parts separate entries of the source, which are not always exact repeats. Identical values can stand only once.

Experiments:
STZ-diabetic rats = assay: Skin elasticity measurement (vacuum pull to displace skin); assay type: in vivo, rat; conditions: 50 mg/kg daily s.c. for eight weeks
Protocol: Experiments were performed to determine the effects of DYN 12 on the loss of skin elasticity associated with diabetes. To this end, two groups of STZ-diabetic rats and two groups of normal rats were subjected to treatment with DYN 12 or saline. One 'group of STZ-diabetic rats (n=9) received daily subcutaneous injections of DYN 12 at 50 mg/kg for eight weeks, as did one group of normal rats (n=6). A group of control diabetic rats (n=10) and a group of normal rats (n=6) received saline instead of DYN 12. One rat was removed from the diabetic DYN 12 group after 2 weeks because its blood glucose readings were inconsistent (too low) with other diabetic rats.
A non-invasive procedure based on CyberDERM, Inc. technology utilizing a skin elasticity measurement device was used to test the effects of DYN 12 treatment on skin elasticity. The procedure provides for non-invasive measurement of skin elasticity based upon the amount of vacuum pull required to displace skin. A suction cup probe is adhered to an area of shaved skin in order to form an airtight seal. Then, a vacuum is applied to the area of the skin inside the suction cup until the skin is displaced past a sensor located inside the probe. Accordingly, the more pressure that is required to displace the skin, the less elastic the skin is.

fructoseamine kinase = molecular target: T1, fructoseamine kinase (Homo sapiens, UniProt Q9H479); assay: Fructoseamine kinase inhibition (Ki); assay type: biochemical
T1 sequence (Q9H479 1-309): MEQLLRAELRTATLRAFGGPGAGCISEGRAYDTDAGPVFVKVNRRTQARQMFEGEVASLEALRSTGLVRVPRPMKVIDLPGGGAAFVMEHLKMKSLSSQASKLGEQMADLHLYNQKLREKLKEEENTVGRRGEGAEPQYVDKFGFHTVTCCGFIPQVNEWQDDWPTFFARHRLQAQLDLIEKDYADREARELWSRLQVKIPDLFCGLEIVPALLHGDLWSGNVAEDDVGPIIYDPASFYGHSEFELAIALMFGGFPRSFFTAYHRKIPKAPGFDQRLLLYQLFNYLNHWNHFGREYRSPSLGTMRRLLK

[1] = Locus of 3-O-methyl sorbitollysine uptake in vivo (tissue, urine, plasma); parameters: species or system rat
Protocol: […] Urine was collected for 3 hours, after which the rats were sacrificed. The tissues to be analyzed were removed and freeze clamped in liquid nitrogen. Perchloric acid extracts of the tissues were used for metabolite analysis. The tissues examined were taken from the brain, heart, muscle, sciatic nerve, spleen, pancreas, liver, and kidney. Plasma was also analyzed.

[2] = Distribution of DYN-12 in plasma, urine and kidney; assay type: in vivo, rat; conditions: individual rats, 100 micromols i.p.
Protocol: Rats were injected intraperitoneally with 1 ml of a 100 mM solution of DYN-12 (100 micromols). Urine was collected for 1 hr, and DYN-12 levels measured. After 1 hr the animals were sacrificed and DYN-12 levels measured in both plasma and kidney tissue.

3DG = assay: Plasma 3DG levels in diabetic and non-diabetic rats treated with 3-O-methyl sorbitollysine; assay type: in vivo, rat; conditions: for plasma 3DG level: 50 mg/kg body weight injections, within one week
Protocol: A cohort of twelve diabetic rats was divided into two groups of six. The first group received saline-only injections, and the second received injections of 3-O-methyl sorbitollysine (50 mg/kg body weight) in saline solution. The same procedure was conducted on a cohort of twelve non-diabetic rats.

- Ki (fructoseamine kinase): 2000 to 3000 µM
- presence of the compound in plasma ([1]; 3 hours after i.p. injection): plasma did not
SMILES: COC(C(O)CNCCCCC(N)C(=O)O)C(O)C(O)CO (stereo not drawn) [DYN 12, 3-O-methylsorbitollysine]
- pressure needed to displace the skin (STZ-diabetic rats): 3.2+/−1.2 kPA
- tissue extracts containing the compound ([1]; brain, heart, muscle, sciatic nerve, spleen, pancreas, liver, kidney examined, 3 hours): only tissue extract found to contain 3-O-methyl sorbitollysine was that of the kidney
- nmols 3OMeSL in kidneys ([1]; individual rats, 13500 nmols i.p., 3 hours, listed as 3OMeSL): 8155 nmols and 3880 nmols and 10071 nmols and 6582 nmols and 5373 nmols and 4833 nmols
- nmols 3OmeSL in urine ([1]; individual rats, 13500 nmols i.p., urine collected 3 hours, listed as 3OMeSL): 4200 nmols and 1355 nmols and 2940 nmols and 1675 nmols and 1778 nmols and 2360 nmols
- % 3OMeSL recovered (of injected dose, urine and kidney) ([1]; individual rats, 3 hours after i.p. injection, listed as 3OMeSL): 91.5% and 38.8% and 96.4% and 61.2% and 53.0% and 53.3%
- total 3OMeSL recovered ([1]; individual rats, urine plus kidneys, 3 hours, listed as 3OMeSL): 12355 nmols and 5235 nmols and 13011 nmols and 8257 nmols and 7151 nmols and 7193 nmols
- DYN-12 concentration Kidney ([2]; 1 hr): 6.54 µmol/g and 9.19 µmol/g and 8.21 µmol/g
- DYN-12 concentration Plasma ([2]; 1 hr): 0.335 µmol/mL and 0.269 µmol/mL and 0.296 µmol/mL
- DYN-12 concentration Urine ([2]; urine collected 1 hr): 41.99 µmol/mL and 17.81 µmol/mL and 15.03 µmol/mL
- % Reduction of plasma 3DG vs saline only (3DG; diabetic rats): 53%
- plasma 3DG level (3DG; diabetic rats): 0.44 ± 0.10 µM
- % Reduction of plasma 3DG vs saline only (3DG; non-diabetic rats): 43%
- plasma 3DG level (3DG; non-diabetic rats): 0.13 ± 0.02 µM
